According to US20240197728A1, “METHODS AND PHARMACEUTICAL COMPOSITIONS FOR TREATING REFRACTORY EPILEPSY” (INSERM (INSTITUT NATIONAL DE LA SANTÉ ET DE LA RECHERCHE …, priority 2021, published 2024):

Tested on: KCC2
Experiment: Surface biotinylation and immunoblot of KCC2 in hippocampal cultures
Assay type: cell-based, rat
Conditions: for effect on total KCC2 expression: hippocampal cultures
Protocol: Primary cultures of hippocampal neurons were prepared as previously described. Briefly, hippocampi were dissected from embryonic day 18-19 Sprague-Dawley rats of either sex. Tissue was then trypsinized (0.25% v/v), and mechanically dissociated in 1×HBSS (Invitrogen) containing 10 mM HEPES. Neurons were plated at a density of 120×10^3 cells/ml onto 18-mm diameter glass coverslips (Assistent) pre-coated with 50 μg/ml poly-D,L-ornithine (Sigma-Aldrich) in plating medium composed of Minimum Essential Medium (MEM, Sigma-Aldrich) supplemented with horse serum (10% v/v, Invitrogen), L-glutamine (2 mM) and Na+ pyruvate (1 mM) (Invitrogen). After attachment for 3-4 h, cells were incubated in culture medium composed of Neurobasal medium supplemented with B27 (1×), L-glutamine (2 mM), and antibiotics (penicillin 200 units/ml, streptomycin, 200 μg/ml; Invitrogen) for up to 4 weeks at 37° C. in a 5% CO2 humidified incubator. Each week, one fifth of the culture medium volume was renewed.
For all experiments on hippocampal cultures, neurons were pre-incubated for 2 hours with either DMSO, PCPZ or CLP257 in a CO2 incubator set at 37° C. Drugs were added directly to the culture medium. For electrophysiology experiments, neurons were also recorded in presence of these drugs in the bath. For biochemistry experiments on rat hippocampo-cortical slices, slices were incubated with either DMSO (vehicle), CLP257, PCPZ, WNK463 or sodium orthovanadate for 2 hours in interface chambers set at 37° C. For human tissue experiments, slices were pre-incubated with either DMSO, CLP257 or PCPZ for 2 hours in interface chambers set at 37° C. and then also recorded in presence of these compounds.
Neurons were washed with ice-cold PBS three times, and then incubated with PBS supplemented with 0.5-1 mg/ml EZ-Link Sulfo-NHS-SS-Biotin (Pierce, Rockford, IL, USA) at 4° C. for 30 min under gentle agitation. Biotinylation was stopped by addition of Tris-HCl (50 mM; pH 7.4) and cells lysed in a modified RIPA buffer containing (in mM): Tris-HCl 50 (pH 7.4), NaCl 150, 1% Nonidet P-40, 0.5% DOC, 0.1% SDS, NaF 50, Na3VO4 1 and protease and phosphatase inhibitors (Roche). Lysates were then collected by gently scraping the bottom of each well. After complete homogenization, samples were centrifuged and the supernatant was collected. A small fraction of the lysates was kept for input KCC2 and total protein quantification using BCA kit (Thermo Scientific). Lysates were mixed with a 50% slurry of Neutravidin beads (Thermo Scientific) and rotated overnight at 4° C. […]
Samples were subjected to electrophoresis on polyacrylamide gradient gels (4-12%) and transferred to nitrocellulose membranes. […] Fluorescence was detected using Odyssey infrared imaging system (LI-COR Bioscience). […]

## CN1CCN(CCCN2c3ccccc3Sc3ccc(Cl)cc32)CC1 [PCPZ, prochlorperazine]
10 μM PCPZ, 2 h, p=0.137
  effect on total KCC2 expression: no effect
10 μM PCPZ, 2 h, p=0.735
  effect on ratio of surface to total KCC2 expression: no effect

## O=C1N=C(N2CCCCN2)S/C1=C\c1ccc(F)cc1O [CLP257, (5Z)-5-[(4-Fluoro-2-hydroxyphenyl)methylene]-2-(tetrahydro-1-(2H)-pyridazinyl)-4(5H)-thiazolone]
100 μM CLP257, 2 h, p=0.893
  effect on total KCC2 expression: no effect
100 μM CLP257, 2 h, p=0.8
  effect on ratio of surface to total KCC2 expression: no effect
